The source of these data is the supplement of paper PMC10307832.

Holding throughout (test): relative viability (nuclei count vs DMSO), 5 days (fraction); higher = more cells survive
Compound in one experiment: COc1cc(Nc2ncc3c(n2)-c2ccc(Cl)cc2C(c2c(F)cccc2OC)=NC3)ccc1C(=O)O [Alisertib]
The procedure, abridged:
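Vehicle-anchored 1536-well plates of lung cancer cell lines, held overnight at 37 °C, were pinned with five library-drug doses (not always all listed) spaced by √10. No medium change followed over the next 5 days, after which the cells were fixed, permeabilised and Hoechst-stained together and imaged at 4×. Nuclei were counted with MetaXpress, and viability is treated-well nuclei over vehicle-well nuclei, taken as a median across plates. Plates passed with control CV below 25% and at least one doubling.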

Compound in the experiment “Alisertib + Navitoclax”: COc1cc(Nc2ncc3c(n2)-c2ccc(Cl)cc2C(c2c(F)cccc2OC)=NC3)ccc1C(=O)O [Alisertib] + CC1(C)CCC(c2ccc(Cl)cc2)=C(CN2CCN(c3ccc(C(=O)NS(=O)(=O)c4ccc(N[C@H](CCN5CCOCC5)CSc5ccccc5)c(S(=O)(=O)C(F)(F)F)c4)cc3)CC2)C1 [Navitoclax] (partner 0.5 µM)
In a few lines:
(§1)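 Cells from lung cancer lines were seeded into 1536-well plates and, one day later, dosed by pin tool. Treatments were either a single drug or a fixed dose of an anchor drug with five library-drug doses (not always all listed) in √10 steps. After 5 days, nuclei were stained in a one-step fixation (final 0.05% Triton X-100, 1% formaldehyde, 1 ug/ml Hoechst) and counted on 4× images, and relative viability is the treated-to-vehicle nuclei ratio, as the median of duplicate plates.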

Compound in the experiment “Alisertib + Tozasertib”: COc1cc(Nc2ncc3c(n2)-c2ccc(Cl)cc2C(c2c(F)cccc2OC)=NC3)ccc1C(=O)O [Alisertib] + Cc1cc(Nc2cc(N3CCN(C)CC3)nc(Sc3ccc(NC(=O)C4CC4)cc3)n2)n[nH]1 [Tozasertib] (partner 0.1 µM)
The procedure, abridged: as §1

Compound in the experiment “Alisertib + Phenformin”: COc1cc(Nc2ncc3c(n2)-c2ccc(Cl)cc2C(c2c(F)cccc2OC)=NC3)ccc1C(=O)O [Alisertib] + N=C(N)NC(=N)NCCc1ccccc1 [Phenformin] (partner 250 µM)
The procedure, abridged: as §1

In the case of COR-L23, the relative viability was found to be 1.02 with Alisertib (0.005 µM); 0.846 with Alisertib (0.01581 µM); 0.484 in the experiment with Alisertib (0.05 µM); 0.203 in the experiment with Alisertib (0.1581 µM); 0.123 with Alisertib (0.5 µM); 0.921 with Alisertib + Navitoclax (first compound 0.005 µM). Besides, the relative viability in the experiment with Alisertib + Navitoclax (first compound 0.01581 µM) turned out to be 0.965; with Alisertib + Navitoclax (first compound 0.05 µM) it was 0.576; in the experiment with Alisertib + Navitoclax (first compound 0.1581 µM) it was 0.198; in the experiment with Alisertib + Navitoclax (first compound 0.5 µM) it was 0.105; with Alisertib + Tozasertib (first compound 0.005 µM), 0.439; with Alisertib + Tozasertib (first compound 0.01581 µM), 0.213. Moreover, the relative viability with Alisertib + Tozasertib (first compound 0.05 µM) amounted to 0.119; in the experiment with Alisertib + Tozasertib (first compound 0.1581 µM), 0.124; in the experiment with Alisertib + Tozasertib (first compound 0.5 µM) it was 0.114; with Alisertib + Phenformin (first compound 0.005 µM) it was 0.351; in the experiment with Alisertib + Phenformin (first compound 0.01581 µM), 0.388; with Alisertib + Phenformin (first compound 0.05 µM) it was 0.243. Moreover, the relative viability was determined as 0.137 with Alisertib + Phenformin (first compound 0.1581 µM) and 0.109 in the experiment with Alisertib + Phenformin (first compound 0.5 µM).

On to COR-L 105, for which the relative viability is 0.863 with Alisertib (0.005 µM); 0.952 in the experiment with Alisertib (0.01581 µM); 0.765 with Alisertib (0.05 µM); 0.305 with Alisertib (0.1581 µM); 0.303 with Alisertib (0.5 µM); 0.909 with Alisertib + Navitoclax (first compound 0.005 µM). Also, the relative viability with Alisertib + Navitoclax (first compound 0.01581 µM) was determined as 0.686; with Alisertib + Navitoclax (first compound 0.05 µM), 0.532; with Alisertib + Navitoclax (first compound 0.1581 µM), 0.273; with Alisertib + Navitoclax (first compound 0.5 µM), 0.287; in the experiment with Alisertib + Tozasertib (first compound 0.005 µM), 0.31; in the experiment with Alisertib + Tozasertib (first compound 0.01581 µM), 0.346. Also, the relative viability with Alisertib + Tozasertib (first compound 0.05 µM) worked out at 0.299; with Alisertib + Tozasertib (first compound 0.1581 µM) it was 0.352; in the experiment with Alisertib + Tozasertib (first compound 0.5 µM), 0.276; with Alisertib + Phenformin (first compound 0.005 µM), 0.454; in the experiment with Alisertib + Phenformin (first compound 0.01581 µM), 0.493; with Alisertib + Phenformin (first compound 0.05 µM), 0.335. The relative viability stood at 0.234 in the experiment with Alisertib + Phenformin (first compound 0.1581 µM) and 0.246 in the experiment with Alisertib + Phenformin (first compound 0.5 µM).

Consider ChaGo-K-1, for which the relative viability worked out at 0.84 in the experiment with Alisertib (0.005 µM); 0.855 with Alisertib (0.01581 µM); 0.348 in the experiment with Alisertib (0.05 µM); 0.245 with Alisertib (0.1581 µM); 0.223 in the experiment with Alisertib (0.5 µM); 1.01 with Alisertib + Navitoclax (first compound 0.005 µM). Moreover, the relative viability was 0.8 with Alisertib + Navitoclax (first compound 0.01581 µM); 0.313 in the experiment with Alisertib + Navitoclax (first compound 0.05 µM); 0.286 in the experiment with Alisertib + Navitoclax (first compound 0.1581 µM); 0.239 with Alisertib + Navitoclax (first compound 0.5 µM); 0.228 with Alisertib + Tozasertib (first compound 0.005 µM); 0.213 with Alisertib + Tozasertib (first compound 0.01581 µM). For the same cell line, the relative viability in the experiment with Alisertib + Tozasertib (first compound 0.05 µM) came out at 0.194; with Alisertib + Tozasertib (first compound 0.1581 µM), 0.207; with Alisertib + Tozasertib (first compound 0.5 µM), 0.198; in the experiment with Alisertib + Phenformin (first compound 0.005 µM) it was 0.426; with Alisertib + Phenformin (first compound 0.01581 µM), 0.382; in the experiment with Alisertib + Phenformin (first compound 0.05 µM), 0.418. The results for the relative viability with Alisertib + Phenformin (first compound 0.1581 µM) and with Alisertib + Phenformin (first compound 0.5 µM) were 0.151 and 0.139, respectively.

EKVX: the relative viability with Alisertib (0.005 µM) was determined as 0.907; in the experiment with Alisertib (0.01581 µM), 0.85; with Alisertib (0.05 µM), 0.43; with Alisertib (0.1581 µM) it was 0.231; with Alisertib (0.5 µM) it was 0.186; with Alisertib + Navitoclax (first compound 0.005 µM), 0.924. Moreover, the relative viability with Alisertib + Navitoclax (first compound 0.01581 µM) was found to be 0.837; with Alisertib + Navitoclax (first compound 0.05 µM) it was 0.589; with Alisertib + Navitoclax (first compound 0.1581 µM), 0.162; with Alisertib + Navitoclax (first compound 0.5 µM), 0.15; with Alisertib + Tozasertib (first compound 0.005 µM), 0.379; in the experiment with Alisertib + Tozasertib (first compound 0.01581 µM), 0.305. Also, the relative viability came to 0.205 with Alisertib + Tozasertib (first compound 0.05 µM); 0.141 with Alisertib + Tozasertib (first compound 0.1581 µM); 0.151 with Alisertib + Tozasertib (first compound 0.5 µM); 0.209 with Alisertib + Phenformin (first compound 0.005 µM); 0.209 with Alisertib + Phenformin (first compound 0.01581 µM); 0.135 with Alisertib + Phenformin (first compound 0.05 µM). Further, the relative viability with Alisertib + Phenformin (first compound 0.1581 µM) was 0.129; with Alisertib + Phenformin (first compound 0.5 µM), 0.131.

With EMC-BAC-2, the relative viability with Alisertib (0.005 µM) was found to be 0.681; in the experiment with Alisertib (0.01581 µM) it was 0.625; in the experiment with Alisertib (0.05 µM), 0.455; with Alisertib (0.1581 µM) it was 0.299; with Alisertib (0.5 µM), 0.259; in the experiment with Alisertib + Navitoclax (first compound 0.005 µM) it was 1.08. The relative viability with Alisertib + Navitoclax (first compound 0.01581 µM) stood at 0.978; with Alisertib + Navitoclax (first compound 0.05 µM), 0.362; with Alisertib + Navitoclax (first compound 0.1581 µM) it was 0.296; in the experiment with Alisertib + Navitoclax (first compound 0.5 µM), 0.18; with Alisertib + Tozasertib (first compound 0.005 µM) it was 0.243; with Alisertib + Tozasertib (first compound 0.01581 µM), 0.283. In addition, the relative viability in the experiment with Alisertib + Tozasertib (first compound 0.05 µM) was 0.214; with Alisertib + Tozasertib (first compound 0.1581 µM), 0.224; in the experiment with Alisertib + Tozasertib (first compound 0.5 µM), 0.173; in the experiment with Alisertib + Phenformin (first compound 0.005 µM) it was 0.389; in the experiment with Alisertib + Phenformin (first compound 0.01581 µM) it was 0.343; with Alisertib + Phenformin (first compound 0.05 µM), 0.27. Moreover, the relative viability with Alisertib + Phenformin (first compound 0.1581 µM) amounted to 0.245; in the experiment with Alisertib + Phenformin (first compound 0.5 µM), 0.197.

Consider EPLC-272H, for which the relative viability with Alisertib (0.005 µM) came to 0.834; with Alisertib (0.01581 µM), 0.758; with Alisertib (0.05 µM), 0.646; with Alisertib (0.1581 µM) it was 0.127; with Alisertib (0.5 µM), 0.139; with Alisertib + Navitoclax (first compound 0.005 µM) it was 1.11. For the same cell line, the relative viability with Alisertib + Navitoclax (first compound 0.01581 µM) came out at 0.962; with Alisertib + Navitoclax (first compound 0.05 µM) it was 0.368; with Alisertib + Navitoclax (first compound 0.1581 µM), 0.346; in the experiment with Alisertib + Navitoclax (first compound 0.5 µM), 0.147; with Alisertib + Tozasertib (first compound 0.005 µM), 0.238; in the experiment with Alisertib + Tozasertib (first compound 0.01581 µM) it was 0.176. In addition, the relative viability with Alisertib + Tozasertib (first compound 0.05 µM) was 0.144; in the experiment with Alisertib + Tozasertib (first compound 0.1581 µM), 0.192; in the experiment with Alisertib + Tozasertib (first compound 0.5 µM) it was 0.16; in the experiment with Alisertib + Phenformin (first compound 0.005 µM) it was 0.251; with Alisertib + Phenformin (first compound 0.01581 µM), 0.238; with Alisertib + Phenformin (first compound 0.05 µM), 0.284. Besides, the relative viability with Alisertib + Phenformin (first compound 0.1581 µM) is 0.101; in the experiment with Alisertib + Phenformin (first compound 0.5 µM), 0.12.

Take H3255: the relative viability is 0.94 with Alisertib (0.005 µM); 0.859 with Alisertib (0.01581 µM); 0.586 with Alisertib (0.05 µM); 0.251 with Alisertib (0.1581 µM); 0.205 with Alisertib (0.5 µM); 0.484 in the experiment with Alisertib + Navitoclax (first compound 0.005 µM). Besides, the relative viability in the experiment with Alisertib + Navitoclax (first compound 0.01581 µM) turned out to be 0.415; with Alisertib + Navitoclax (first compound 0.05 µM), 0.355; with Alisertib + Navitoclax (first compound 0.1581 µM) it was 0.0997; with Alisertib + Navitoclax (first compound 0.5 µM), 0.0929; with Alisertib + Tozasertib (first compound 0.005 µM), 0.737; in the experiment with Alisertib + Tozasertib (first compound 0.01581 µM), 0.503. For the same cell line, the relative viability with Alisertib + Tozasertib (first compound 0.05 µM) came out at 0.296; in the experiment with Alisertib + Tozasertib (first compound 0.1581 µM) it was 0.137; in the experiment with Alisertib + Tozasertib (first compound 0.5 µM), 0.227; in the experiment with Alisertib + Phenformin (first compound 0.005 µM) it was 0.329; with Alisertib + Phenformin (first compound 0.01581 µM) it was 0.338; in the experiment with Alisertib + Phenformin (first compound 0.05 µM), 0.313. The relative viability in the experiment with Alisertib + Phenformin (first compound 0.1581 µM) stood at 0.299; with Alisertib + Phenformin (first compound 0.5 µM) it was 0.294.
